One may read the IC50 as the concentration that inhibits the measured activity by half. A low value points to inhibition by little substance.

One experiment concerns the target metalloelastase (MMP12) (Homo sapiens, UniProt P39900). Description: MMP12 enzyme inhibition assay (fluorogenic peptide substrate McaPLGLDpaAR). Type of experiment: biochemical. To be noted: protocol as for MMP9 assay.
Experiment [1] relates to CCl4-induced liver fibrosis. Description: CCl4-induced liver fibrosis model. The conditions noted are these: rat, CCl4 i.p. Type of experiment: in vivo, Male Sprague-Dawley rats. The source says: Carbon tetrachloride (CCl4) induces liver fibrosis when administered intraperitoneally (Bulbena O, Culat J, Bravo M L., Inflammation 1997 October; 21(5):475-88). Compounds of the invention can be evaluated for their ability to prevent the CCl4-induced formation of fibrotic tissue. Male Sprague-Dawley rats, 7 weeks old, weight approx. 300 g from Charles River/Iffa-Crédo, St-Germain/l'Arbresle, France. The study involved the following groups of 8 animals each, as indicated below. Group 1: “Sham” animals received CCl4 vehicle (i.p.) and once daily, the vehicle of test substance (s.c.) Group 2: Positive control group received CCl4 (i.p.), and once daily, the vehicle of the test substance (s.c.) Group 3: Experimental group received CCl4 (i.p.), and once daily, 2 mg/kg s.c. of the compound of Example 13. Group 4: Experimental group received CCl4 (i.p.), and once daily, 10 mg/kg s.c. of the compound of Example 13. Group 5: Experimental group received CCl4 (i.p.) and once daily, 20 mg/kg s.c. of the compound of Example 13. CCl4 (Prolabo) in olive oil was administered every 3 days for three weeks by intraperitoneal injection (0,25 ml CCl4/kg body weight, diluted in oil 1:1 vol:vol for a total volume of 0.5 ml/kg). Animals were weighed daily. If body weight decreased by more than 10% of the initial weight, the animal was excluded from the study. Vehicles and compound were used as follows: • CCl4 was administered in olive oil (prolabo) at a 1:1 dilution; • The compound of Example 13 was suspended in 0.25% Tween-80 and 0.25% carboxymethylcellulose in sterile 0.9% NaCl. The solution was kept at 4° C. throughout the experiment and used each day to prepare the suspensions. The compound of Example 13 was administered daily by subcutaneous (s.c.) injection at a volume of administration of 5 ml/kg. Groups 1 and 2 were dosed s.c. with 5 ml/kg of vehicle. Freshly prepared solutions were used on each day of the experiment. […] Plasma aspartate amino transferase (ASAT) and alanine amino transferase (ALAT) levels were measured in order to assess liver necrosis. […]

Where [2] appears, read: compound s.c. once daily 2, 10, 20 mg/kg for 21 days, compared to vehicle (FIG. 1).

Each structure is given as a SMILES string.

metalloelastase (MMP12), sequence (P39900 106-470): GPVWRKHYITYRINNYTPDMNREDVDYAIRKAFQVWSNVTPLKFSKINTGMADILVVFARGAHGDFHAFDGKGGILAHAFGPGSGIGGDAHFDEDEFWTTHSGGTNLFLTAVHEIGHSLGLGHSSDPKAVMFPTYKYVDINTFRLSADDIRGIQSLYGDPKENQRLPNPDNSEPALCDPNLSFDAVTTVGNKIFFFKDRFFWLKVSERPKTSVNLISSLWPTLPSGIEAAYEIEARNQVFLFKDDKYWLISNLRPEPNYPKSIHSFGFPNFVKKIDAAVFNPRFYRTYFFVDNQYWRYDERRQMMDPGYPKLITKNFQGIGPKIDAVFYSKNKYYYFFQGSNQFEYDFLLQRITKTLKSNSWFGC

In the case of `CC(C)C[C@@H](C(=O)N[C@H](c1noc(-c2cccs2)n1)C(C)(C)C)[C@H](O)C(=O)NO` [Example 13, 2S-Hydroxy-3R-[1S-(5-thiophen-2-yl-[1,2,4]oxadiazol-3-yl)-2,2-dimethyl-propylcarbamoyl]-5-methyl Hexanohydroxamic Acid], the IC50 against metalloelastase (MMP12) was less than 100 nM. Further, in experiment [1] (setting [2]), the “Plasma alanine amino transferase (ALAT) level” value is on record as “clearly decreases” and the “Plasma aspartate amino transferase (ASAT) level” value was “clearly decreases”. The “Effect on the liver” value in experiment [1] (compound s.c. once daily, conclusion from ASAT and ALAT levels) is given as “protective effect on the liver”.

The values are drawn from patent US20100035943A1, “Oxa-and thiadiazoles and their use as metalloproteinase inhibitors” (VERNALIS (OXFORD) LTD, priority 2002, published 2010).
